# According to US20190134047A1, “A MIXTURE OF D-SERINE AND CAFFEINE FOR OBTAINING THE EFFECT OF PREVENTING THE DECLINE OF LEARNING ABILITY OR MEMORY CAUSED BY STRESS AND ENHANCING LEARNING ABILITY OR MEMORY, AND A FUNCTIONAL FOOD COMPOSITION CONTAINING THE SAME” (ADVANCED NT, priority 2016, published 2019):
# Tested on: C57BL/6 male mouse
# Test: Novel object recognition test with restraint stress
# Assay type: in vivo
# Conditions: for preference for objects A and B on the fourth day (training day): abdominal injection 30 min before; for preference for objects A and B on the fourth day (training day) / preference for new object C on the fifth day after 24 hours: + restraint stress, mean±standard error; for preference for new object C on the fifth day after 24 hours: abdominal injection
# Method: In all experiments, C57BL/6 male mouse, a kind of B6 mouse of 8-12 weeks old, were used. The experimental groups were divided into 7 experimental groups according to whether they were stressed or not and the type and weight of injected drugs as follows. […] Immediately after each behavioral experiment, restraint stress was applied by placing the mouse in a 50 mL tube pre-pierced with about 9 pores for 90 minutes. A mouse was placed in an open-field box (40 cm×40 cm×40 cm) made of acryl for 15 minutes every day for 3 days to fit and stabilize to the box. On the training day of the fourth day, two different objects made of acryl (objects A and B) were placed at regular intervals in the box and the mice were trained to freely search objects A and B for 10 minutes. […] The search time for each object (A and C or B and C) was quantified and the preference for the object was expressed as a ratio of search time (Preference (%)=C/(A+C)*100). […] To compare the results of the said two behavioral experiments, SPSS 21.0 (SPSS Inc, Chicago, Ill.) and Student's T-test and one-way ANOVA were used for statistical analysis.
# [1] = D-serine 500 mg (second weight)
Structure (SMILES),"preference for new object C, comparison among drug groups (D-Serine 50 mg + restraint stress as printed, 24-hour results, one-way ANOVA)",preference for objects A and B on the fourth day (training day) (D-serine 50 mg (first weight)) [%],preference for new object C on the fifth day after 24 hours (D-serine 50 mg (first weight)) [%],preference for objects A and B on the fourth day (training day) [1] [%],preference for new object C on the fifth day after 24 hours [1] [%],preference for objects A and B on the fourth day (training day) (Caffeine 10 mg) [%],preference for new object C on the fifth day after 24 hours (Caffeine 10 mg) [%]
N[C@H](CO)C(=O)O [D-serine],highest preference,52.12±2.81,63.63±3.94,47.83±3.97,67.55±3.46,–,–
Cn1c(=O)c2c(ncn2C)n(C)c1=O [caffeine],–,–,–,–,–,49.92±2.75,62.06±2.27
